Compound: CC(C)C[C@@H](C(=O)N[C@H](C(=O)OC1CCCC1)c1ccccc1)[C@H](O)C(=O)NO [Tosedostat]
Assay: relative viability (nuclei count vs DMSO), 5 days (fraction); higher = more cells survive
Settings: 2 µM
How it was run: (§1)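 On vehicle-anchored 1536-well plates, lung cancer cell lines held overnight at 37 °C were pinned with five library-drug doses (not always all listed) spaced by √10. With no medium change over 5 days, they were then fixed, permeabilised and Hoechst-stained in one step and imaged at 4×. MetaXpress counted nuclei, and viability is the median across plates of treated-well over vehicle-well nuclei. Acceptance needed control CV below 25% and at least one doubling.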

Q: A549 was tested. Which relative viability did it give?
A: 0.815

Q: For LXF-289, which relative viability is on record?
A: 1.05

Q: BEN was tested. Which relative viability did it give?
A: 1.2

Q: For HARA, which relative viability is on record?
A: 0.774

Q: For HCC-78, which relative viability is on record?
A: 0.958

Q: How did the relative viability turn out when NCI-H647 was run?
A: 0.883

Q: For LCLC-97TM1, which relative viability is on record?
A: 0.621

Q: How did the relative viability turn out when NCI-H2126 was run?
A: 0.865

Q: How did the relative viability turn out when A-427 was run?
A: 0.908

Q: With NCI-H650 as the cell line, how does the relative viability read?
A: 0.789

Q: Which relative viability does the source give for RERF-LC-KJ here?
A: 0.876

Q: NCI-H1915 was tested. Which relative viability did it give?
A: 0.891

Q: NCI-H661 was tested. Which relative viability did it give?
A: 0.934

Q: How did the relative viability turn out when NCI-H1975 was run?
A: 0.733

Q: How did the relative viability turn out when NCI-H1395 was run?
A: 0.78

Q: Which relative viability does the source give for 201T here?
A: 1.01

Q: For NCI-H2023, which relative viability is on record?
A: 0.942

Q: How did the relative viability turn out when HCC-827 was run?
A: 1.01

Compound: CC1=NN=C(O1)C2=NN=C(C=C2)N3CCC(CC3)OC4=C(C=CC(=C4)F)Cl
Assay: as above
Settings: 0.253 µM
How it was run: as §1

Q: NCI-H23 was tested. Which relative viability did it give?
A: 0.919

Q: Which relative viability does the source give for Calu-6 here?
A: 0.673

Q: For HCC-366, which relative viability is on record?
A: 0.484

Q: With NCI-H1755 as the cell line, how does the relative viability read?
A: 0.661

Q: How did the relative viability turn out when NCI-H838 was run?
A: 0.885

Q: For LK-2, which relative viability is on record?
A: 0.965

Q: For NCI-H2347, which relative viability is on record?
A: 0.883

Q: SK-MES-1 was tested. Which relative viability did it give?
A: 0.859

Q: With H3255 as the cell line, how does the relative viability read?
A: 0.662

Q: COR-L23 was tested. Which relative viability did it give?
A: 0.826

Q: How did the relative viability turn out when COR-L 105 was run?
A: 0.902

Q: IA-LM was tested. Which relative viability did it give?
A: 0.169

Q: For LU99A, which relative viability is on record?
A: 1.05

Q: How did the relative viability turn out when NCI-H2170 was run?
A: 0.481

Q: For NCI-H460, which relative viability is on record?
A: 0.273

Q: With HOP-62 as the cell line, how does the relative viability read?
A: 0.77

Q: For HCC-44, which relative viability is on record?
A: 0.492

Q: For A549, which relative viability is on record?
A: 0.69

Q: With LXF-289 as the cell line, how does the relative viability read?
A: 0.712

Q: With BEN as the cell line, how does the relative viability read?
A: 0.895

Q: With HARA as the cell line, how does the relative viability read?
A: 0.484

Q: With HCC-78 as the cell line, how does the relative viability read?
A: 0.659

Q: How did the relative viability turn out when NCI-H647 was run?
A: 0.65

Q: How did the relative viability turn out when LCLC-97TM1 was run?
A: 0.795

Q: How did the relative viability turn out when NCI-H2126 was run?
A: 0.832

Q: How did the relative viability turn out when A-427 was run?
A: 0.904

Q: How did the relative viability turn out when NCI-H650 was run?
A: 0.927

Q: For RERF-LC-KJ, which relative viability is on record?
A: 0.653

Q: For NCI-H1915, which relative viability is on record?
A: 0.607

Q: For NCI-H661, which relative viability is on record?
A: 0.859

Q: Which relative viability does the source give for NCI-H1395 here?
A: 0.823

Q: 201T was tested. Which relative viability did it give?
A: 0.481

Q: NCI-H2023 was tested. Which relative viability did it give?
A: 0.513

Q: With HCC-827 as the cell line, how does the relative viability read?
A: 0.47

Same assay, conditions: 0.8 µM

Q: Which relative viability does the source give for NCI-H23 here?
A: 0.532

Q: How did the relative viability turn out when Calu-6 was run?
A: 0.682

Q: How did the relative viability turn out when HCC-366 was run?
A: 0.469

Q: With NCI-H1755 as the cell line, how does the relative viability read?
A: 0.746

Q: With NCI-H838 as the cell line, how does the relative viability read?
A: 0.752

Q: How did the relative viability turn out when LK-2 was run?
A: 0.823

Q: Which relative viability does the source give for NCI-H2347 here?
A: 0.771

Q: How did the relative viability turn out when SK-MES-1 was run?
A: 0.79

Q: Which relative viability does the source give for H3255 here?
A: 0.688

Q: How did the relative viability turn out when COR-L23 was run?
A: 0.891

Q: With COR-L 105 as the cell line, how does the relative viability read?
A: 0.956

Q: With IA-LM as the cell line, how does the relative viability read?
A: 0.142

Q: Which relative viability does the source give for LU99A here?
A: 0.783

Q: How did the relative viability turn out when NCI-H2170 was run?
A: 0.52

Q: NCI-H460 was tested. Which relative viability did it give?
A: 0.306

Q: With HOP-62 as the cell line, how does the relative viability read?
A: 0.529

Q: HCC-44 was tested. Which relative viability did it give?
A: 0.542

Q: With A549 as the cell line, how does the relative viability read?
A: 0.611

Q: For LXF-289, which relative viability is on record?
A: 0.616

Q: For BEN, which relative viability is on record?
A: 0.959

Q: How did the relative viability turn out when HARA was run?
A: 0.387

Q: For HCC-78, which relative viability is on record?
A: 0.615

Q: How did the relative viability turn out when NCI-H647 was run?
A: 0.642

Q: NCI-H2126 was tested. Which relative viability did it give?
A: 0.869

Q: With NCI-H650 as the cell line, how does the relative viability read?
A: 0.72

Q: Which relative viability does the source give for RERF-LC-KJ here?
A: 0.628

Q: With NCI-H1915 as the cell line, how does the relative viability read?
A: 0.341

Q: Which relative viability does the source give for NCI-H661 here?
A: 0.816

Q: How did the relative viability turn out when NCI-H1975 was run?
A: 0.676

Q: NCI-H1395 was tested. Which relative viability did it give?
A: 0.762

Q: Which relative viability does the source give for 201T here?
A: 0.523

Q: How did the relative viability turn out when NCI-H2023 was run?
A: 0.451

Q: How did the relative viability turn out when HCC-827 was run?
A: 0.297

Same assay, conditions: 2.53 µM

Q: For NCI-H23, which relative viability is on record?
A: 0.835

Q: Which relative viability does the source give for Calu-6 here?
A: 0.694

Q: Which relative viability does the source give for HCC-366 here?
A: 0.508

Q: Which relative viability does the source give for NCI-H1755 here?
A: 0.759

Q: How did the relative viability turn out when NCI-H838 was run?
A: 0.886

Q: How did the relative viability turn out when LK-2 was run?
A: 1.01

Q: Which relative viability does the source give for NCI-H2347 here?
A: 0.893

Q: With SK-MES-1 as the cell line, how does the relative viability read?
A: 0.912

Q: With H3255 as the cell line, how does the relative viability read?
A: 0.635

Q: With COR-L23 as the cell line, how does the relative viability read?
A: 0.797

Q: COR-L 105 was tested. Which relative viability did it give?
A: 0.989

Q: How did the relative viability turn out when IA-LM was run?
A: 0.171

Q: Which relative viability does the source give for LU99A here?
A: 0.721

Q: With NCI-H2170 as the cell line, how does the relative viability read?
A: 0.607

Q: Which relative viability does the source give for NCI-H460 here?
A: 0.282

Q: For HOP-62, which relative viability is on record?
A: 0.707

Q: HCC-44 was tested. Which relative viability did it give?
A: 0.509

Q: A549 was tested. Which relative viability did it give?
A: 0.575

Q: How did the relative viability turn out when LXF-289 was run?
A: 0.737

Q: BEN was tested. Which relative viability did it give?
A: 0.974

Q: Which relative viability does the source give for HARA here?
A: 0.538

Q: For HCC-78, which relative viability is on record?
A: 0.578

Q: Which relative viability does the source give for NCI-H647 here?
A: 0.66

Q: Which relative viability does the source give for LCLC-97TM1 here?
A: 0.564

Q: For NCI-H2126, which relative viability is on record?
A: 0.928

Q: A-427 was tested. Which relative viability did it give?
A: 0.956

Q: How did the relative viability turn out when NCI-H650 was run?
A: 0.865

Q: How did the relative viability turn out when RERF-LC-KJ was run?
A: 0.652

Q: With NCI-H1915 as the cell line, how does the relative viability read?
A: 0.497

Q: How did the relative viability turn out when NCI-H661 was run?
A: 0.731

Q: NCI-H1975 was tested. Which relative viability did it give?
A: 0.918

Q: Which relative viability does the source give for NCI-H1395 here?
A: 0.813

Q: For 201T, which relative viability is on record?
A: 0.553

Q: NCI-H2023 was tested. Which relative viability did it give?
A: 0.579

Q: HCC-827 was tested. Which relative viability did it give?
A: 0.455

Same assay, conditions: 8 µM

Q: How did the relative viability turn out when NCI-H23 was run?
A: 0.815

Q: How did the relative viability turn out when Calu-6 was run?
A: 0.61

Q: With HCC-366 as the cell line, how does the relative viability read?
A: 0.482

Q: Which relative viability does the source give for NCI-H1755 here?
A: 0.731

Q: With NCI-H838 as the cell line, how does the relative viability read?
A: 0.78

Q: How did the relative viability turn out when LK-2 was run?
A: 1.02

Q: How did the relative viability turn out when NCI-H2347 was run?
A: 0.783

Q: How did the relative viability turn out when SK-MES-1 was run?
A: 0.783

Q: Which relative viability does the source give for H3255 here?
A: 0.727

Q: COR-L23 was tested. Which relative viability did it give?
A: 0.655

Q: How did the relative viability turn out when COR-L 105 was run?
A: 1.07

Q: IA-LM was tested. Which relative viability did it give?
A: 0.155

Q: For LU99A, which relative viability is on record?
A: 0.758

Q: Which relative viability does the source give for NCI-H2170 here?
A: 0.444

Q: How did the relative viability turn out when NCI-H460 was run?
A: 0.284

Q: HOP-62 was tested. Which relative viability did it give?
A: 0.587

Q: Which relative viability does the source give for HCC-44 here?
A: 0.517

Q: A549 was tested. Which relative viability did it give?
A: 0.541

Q: Which relative viability does the source give for LXF-289 here?
A: 0.653

Q: BEN was tested. Which relative viability did it give?
A: 0.821

Q: For HARA, which relative viability is on record?
A: 0.355

Q: With HCC-78 as the cell line, how does the relative viability read?
A: 0.551

Q: NCI-H647 was tested. Which relative viability did it give?
A: 0.413

Q: Which relative viability does the source give for LCLC-97TM1 here?
A: 0.548

Q: How did the relative viability turn out when NCI-H2126 was run?
A: 0.864

Q: With A-427 as the cell line, how does the relative viability read?
A: 0.789

Q: How did the relative viability turn out when NCI-H650 was run?
A: 0.71

Q: Which relative viability does the source give for RERF-LC-KJ here?
A: 0.647

Q: Which relative viability does the source give for NCI-H1915 here?
A: 0.407

Q: NCI-H661 was tested. Which relative viability did it give?
A: 0.71

Q: With NCI-H1975 as the cell line, how does the relative viability read?
A: 0.849

Q: Which relative viability does the source give for NCI-H1395 here?
A: 0.882

Q: Which relative viability does the source give for 201T here?
A: 0.503

Q: For NCI-H2023, which relative viability is on record?
A: 0.431

Q: HCC-827 was tested. Which relative viability did it give?
A: 0.443

Reference: the supplement of paper PMC10307832
